Results taken from ChEMBL document CHEMBL1201862, “PubChem BioAssay data set” (2004).
Active and inactive are the calls of the source.

Tests used:
[1] = biological target: T1, Neuropeptide Y receptor type 1 (Homo sapiens, UniProt P25929); assay type: functional;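 note: HEK293 cells with a CNG channel challenged with NPY then isoproterenol; potency as antagonist that reverses NPY suppression of cAMP signal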
T1 sequence (P25929 whole entry): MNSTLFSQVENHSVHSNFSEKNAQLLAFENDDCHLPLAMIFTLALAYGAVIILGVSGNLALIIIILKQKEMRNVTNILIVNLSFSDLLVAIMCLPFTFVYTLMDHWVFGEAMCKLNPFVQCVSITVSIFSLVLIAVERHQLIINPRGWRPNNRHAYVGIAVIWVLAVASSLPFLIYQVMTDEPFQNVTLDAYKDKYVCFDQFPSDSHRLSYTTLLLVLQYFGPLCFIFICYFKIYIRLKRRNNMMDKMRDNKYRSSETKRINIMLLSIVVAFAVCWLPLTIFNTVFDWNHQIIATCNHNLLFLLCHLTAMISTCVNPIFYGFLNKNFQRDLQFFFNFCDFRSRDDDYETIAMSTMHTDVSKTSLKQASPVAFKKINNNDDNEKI

[2] = biological target: T2, Neuropeptide Y receptor type 2 (Homo sapiens, UniProt P49146); assay type: functional, cell-based;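 note: HEK293 cells expressing the receptor and a CNG channel; stimulus was NPY near EC95 followed by isoproterenol to raise cAMP; antagonist potency measured as restoring cAMP signal that NPY suppresses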
T2 sequence (P49146 whole entry): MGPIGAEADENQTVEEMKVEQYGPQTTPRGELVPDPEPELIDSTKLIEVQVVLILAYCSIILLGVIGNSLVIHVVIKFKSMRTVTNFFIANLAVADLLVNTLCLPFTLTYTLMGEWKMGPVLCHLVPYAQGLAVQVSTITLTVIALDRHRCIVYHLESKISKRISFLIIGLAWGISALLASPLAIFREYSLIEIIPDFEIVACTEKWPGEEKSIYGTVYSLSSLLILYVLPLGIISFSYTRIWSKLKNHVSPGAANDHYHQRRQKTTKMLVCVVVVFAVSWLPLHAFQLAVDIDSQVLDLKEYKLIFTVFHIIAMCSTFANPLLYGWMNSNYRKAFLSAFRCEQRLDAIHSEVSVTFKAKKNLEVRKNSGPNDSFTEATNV

Aspartyl aminopeptidase = biological target: T3, Aspartyl aminopeptidase (Plasmodium falciparum 3D7, UniProt Q8I2J3)
T3 sequence (Q8I2J3 whole entry): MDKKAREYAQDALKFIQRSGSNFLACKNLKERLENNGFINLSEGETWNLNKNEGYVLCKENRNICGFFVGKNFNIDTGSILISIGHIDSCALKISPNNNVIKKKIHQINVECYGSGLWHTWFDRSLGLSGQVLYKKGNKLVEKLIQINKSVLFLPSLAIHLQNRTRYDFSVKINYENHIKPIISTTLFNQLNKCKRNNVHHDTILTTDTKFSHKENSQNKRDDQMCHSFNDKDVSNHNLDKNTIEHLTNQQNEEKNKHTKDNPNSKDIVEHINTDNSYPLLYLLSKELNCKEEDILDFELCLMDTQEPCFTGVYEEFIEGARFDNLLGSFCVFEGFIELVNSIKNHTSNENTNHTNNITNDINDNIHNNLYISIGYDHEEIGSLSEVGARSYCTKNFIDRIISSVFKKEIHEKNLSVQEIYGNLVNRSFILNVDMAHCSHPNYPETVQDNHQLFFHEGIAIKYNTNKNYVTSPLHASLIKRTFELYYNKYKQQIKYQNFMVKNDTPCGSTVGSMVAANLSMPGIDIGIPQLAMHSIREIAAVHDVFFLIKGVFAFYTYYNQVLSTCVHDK

Procathepsin L = Procathepsin L (Homo sapiens, UniProt P07711)
Protein skinhead-1 = biological target: T4, Protein skinhead-1 (Caenorhabditis elegans, UniProt P34707); assay type: functional
T4 sequence (P34707 whole entry): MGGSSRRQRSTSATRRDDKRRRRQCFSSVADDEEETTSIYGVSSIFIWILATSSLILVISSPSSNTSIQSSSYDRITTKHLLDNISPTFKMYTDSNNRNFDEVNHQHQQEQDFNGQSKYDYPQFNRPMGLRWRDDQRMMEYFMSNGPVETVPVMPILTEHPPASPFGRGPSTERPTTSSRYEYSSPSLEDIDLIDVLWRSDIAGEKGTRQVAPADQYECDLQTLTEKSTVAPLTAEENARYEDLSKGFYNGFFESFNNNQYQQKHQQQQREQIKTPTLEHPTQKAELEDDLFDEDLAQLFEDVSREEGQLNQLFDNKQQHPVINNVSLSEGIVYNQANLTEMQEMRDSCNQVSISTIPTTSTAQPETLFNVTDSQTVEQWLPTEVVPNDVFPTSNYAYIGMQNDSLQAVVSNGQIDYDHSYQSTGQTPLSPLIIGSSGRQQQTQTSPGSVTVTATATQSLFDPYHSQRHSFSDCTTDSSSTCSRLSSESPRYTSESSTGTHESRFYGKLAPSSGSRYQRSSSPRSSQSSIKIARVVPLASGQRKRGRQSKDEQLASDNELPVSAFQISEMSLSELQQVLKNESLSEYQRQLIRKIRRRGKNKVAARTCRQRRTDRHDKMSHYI

Mucolipin-3 = biological target: T5, Mucolipin-3 (Homo sapiens, UniProt Q8TDD5); assay: Dose response cell-based high-throughput screening assay for agonists of the transient receptor potential channel ML3 (TRPML3). [Related pubchem assays: 1526, 1424, 1448 ]; assay type: functional
T5 sequence (Q8TDD5 whole entry): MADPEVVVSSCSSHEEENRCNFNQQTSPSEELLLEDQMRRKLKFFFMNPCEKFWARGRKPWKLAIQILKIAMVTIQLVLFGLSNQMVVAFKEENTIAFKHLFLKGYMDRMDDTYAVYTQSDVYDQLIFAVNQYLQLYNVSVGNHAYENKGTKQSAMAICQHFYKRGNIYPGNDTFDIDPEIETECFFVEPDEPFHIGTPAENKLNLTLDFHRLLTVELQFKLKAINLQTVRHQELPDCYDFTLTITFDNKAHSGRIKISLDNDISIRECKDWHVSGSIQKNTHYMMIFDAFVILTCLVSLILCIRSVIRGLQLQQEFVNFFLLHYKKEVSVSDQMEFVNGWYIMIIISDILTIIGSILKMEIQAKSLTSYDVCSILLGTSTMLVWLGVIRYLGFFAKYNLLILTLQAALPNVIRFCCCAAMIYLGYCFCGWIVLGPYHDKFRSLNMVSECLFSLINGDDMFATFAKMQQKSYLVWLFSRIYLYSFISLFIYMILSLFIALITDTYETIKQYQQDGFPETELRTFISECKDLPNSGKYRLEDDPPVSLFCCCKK

Ion channel NompC = Ion channel NompC (Danio rerio, UniProt Q7T1G6); assay: Fluorescence counterscreen assay for TRPML3 agonists: dose response cell-based high-throughput screening assay to identify agonists of the transient receptor potential channel N1 (TRPN1). [Related pubchem assays: 1526, 1424, 1448 ]; assay type: functional
[3] = Luminescence Cell-Based Dose Confirmation HTS to Identify Activators of 5'UTR Stem-Loop Driven Alpha-Synuclein mRNA Translation in H4 Neuroglioblastoma Cells. [Related pubchem assays: 1829 (Project Summary), 1814 (Primary HTS)]; assay type: functional
[4] = Luminescence Cell-Based Dose Response HTS to Identify Activators of Luciferase Translation or Activity in H4 […] Cells. [Related pubchem assays: 1829 (Project Summary), 1814 (Primary HTS)]; assay type: functional
H4 = assay: Luminescence Cell-Based Dose Response HTS to Identify Activators of 5'UTR Stem-Loop Driven Prion Protein mRNA Translation in H4 Neuroglioblastoma Cells. [Related pubchem assays: 1829 (Project Summary), 1814 (Primary HTS)]; assay type: functional; settings: Homo sapiens
[5] = biological target: T6, Acyl-homoserine lactone acylase PvdQ (Pseudomonas aeruginosa (strain LESB58), UniProt Q9I194); assay: P. aeruginosa PvdQ acylase inhibitors, dose response, biochemical, fluorescence, plate reader and imaging, cherry-picks (AID 493231)
T6 sequence (Q9I194 whole entry): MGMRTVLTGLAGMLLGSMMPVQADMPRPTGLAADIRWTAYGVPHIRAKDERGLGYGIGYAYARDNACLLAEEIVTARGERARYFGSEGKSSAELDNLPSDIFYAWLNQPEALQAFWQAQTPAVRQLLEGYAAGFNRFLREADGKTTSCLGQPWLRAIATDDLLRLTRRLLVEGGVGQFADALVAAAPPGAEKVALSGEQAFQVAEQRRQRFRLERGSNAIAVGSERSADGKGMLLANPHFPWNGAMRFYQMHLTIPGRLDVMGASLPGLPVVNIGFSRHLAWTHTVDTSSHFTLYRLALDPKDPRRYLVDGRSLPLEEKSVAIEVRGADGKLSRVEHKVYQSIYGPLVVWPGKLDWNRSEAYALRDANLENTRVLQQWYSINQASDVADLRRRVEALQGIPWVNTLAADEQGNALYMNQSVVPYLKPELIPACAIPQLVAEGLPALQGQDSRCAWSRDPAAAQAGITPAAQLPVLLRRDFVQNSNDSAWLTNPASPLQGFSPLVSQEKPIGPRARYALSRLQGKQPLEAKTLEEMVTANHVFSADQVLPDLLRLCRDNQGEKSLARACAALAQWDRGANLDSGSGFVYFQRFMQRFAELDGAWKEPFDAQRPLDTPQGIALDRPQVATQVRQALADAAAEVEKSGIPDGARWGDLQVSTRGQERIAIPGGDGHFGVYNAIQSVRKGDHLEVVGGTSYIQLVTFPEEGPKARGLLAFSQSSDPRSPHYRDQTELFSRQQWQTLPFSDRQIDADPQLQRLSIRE

[6] = cytotoxicity in HEK-293T cells, dose response, cytotoxicity control for BCR NF-kB inhibitor project, luminescence, B-cell screen hits (AID 489021); assay type: functional, cell-based;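 note: HEK-293T cells carrying an NF-kB luciferase reporter; cells exposed to compound for about 14 hours before viability readout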
[7] = Luminescence Cell-Based Dose Retest to Confirm Inhibitors of Cancer Stem Cells. [Related pubchem assays (depositor defined):AID2717, AID2721]; assay type: functional; settings: Homo sapiens

Chain of Procathepsin L (P07711 whole entry): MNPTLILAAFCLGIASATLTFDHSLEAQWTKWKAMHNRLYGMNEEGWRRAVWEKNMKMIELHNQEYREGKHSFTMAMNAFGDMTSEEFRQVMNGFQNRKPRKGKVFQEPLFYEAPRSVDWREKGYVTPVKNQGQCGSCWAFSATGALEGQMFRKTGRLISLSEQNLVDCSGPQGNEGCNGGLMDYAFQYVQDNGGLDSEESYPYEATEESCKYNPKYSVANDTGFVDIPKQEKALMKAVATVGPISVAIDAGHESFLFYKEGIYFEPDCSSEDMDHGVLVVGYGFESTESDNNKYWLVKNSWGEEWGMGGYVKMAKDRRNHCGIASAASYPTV
Chain of Ion channel NompC (Q7T1G6 whole entry): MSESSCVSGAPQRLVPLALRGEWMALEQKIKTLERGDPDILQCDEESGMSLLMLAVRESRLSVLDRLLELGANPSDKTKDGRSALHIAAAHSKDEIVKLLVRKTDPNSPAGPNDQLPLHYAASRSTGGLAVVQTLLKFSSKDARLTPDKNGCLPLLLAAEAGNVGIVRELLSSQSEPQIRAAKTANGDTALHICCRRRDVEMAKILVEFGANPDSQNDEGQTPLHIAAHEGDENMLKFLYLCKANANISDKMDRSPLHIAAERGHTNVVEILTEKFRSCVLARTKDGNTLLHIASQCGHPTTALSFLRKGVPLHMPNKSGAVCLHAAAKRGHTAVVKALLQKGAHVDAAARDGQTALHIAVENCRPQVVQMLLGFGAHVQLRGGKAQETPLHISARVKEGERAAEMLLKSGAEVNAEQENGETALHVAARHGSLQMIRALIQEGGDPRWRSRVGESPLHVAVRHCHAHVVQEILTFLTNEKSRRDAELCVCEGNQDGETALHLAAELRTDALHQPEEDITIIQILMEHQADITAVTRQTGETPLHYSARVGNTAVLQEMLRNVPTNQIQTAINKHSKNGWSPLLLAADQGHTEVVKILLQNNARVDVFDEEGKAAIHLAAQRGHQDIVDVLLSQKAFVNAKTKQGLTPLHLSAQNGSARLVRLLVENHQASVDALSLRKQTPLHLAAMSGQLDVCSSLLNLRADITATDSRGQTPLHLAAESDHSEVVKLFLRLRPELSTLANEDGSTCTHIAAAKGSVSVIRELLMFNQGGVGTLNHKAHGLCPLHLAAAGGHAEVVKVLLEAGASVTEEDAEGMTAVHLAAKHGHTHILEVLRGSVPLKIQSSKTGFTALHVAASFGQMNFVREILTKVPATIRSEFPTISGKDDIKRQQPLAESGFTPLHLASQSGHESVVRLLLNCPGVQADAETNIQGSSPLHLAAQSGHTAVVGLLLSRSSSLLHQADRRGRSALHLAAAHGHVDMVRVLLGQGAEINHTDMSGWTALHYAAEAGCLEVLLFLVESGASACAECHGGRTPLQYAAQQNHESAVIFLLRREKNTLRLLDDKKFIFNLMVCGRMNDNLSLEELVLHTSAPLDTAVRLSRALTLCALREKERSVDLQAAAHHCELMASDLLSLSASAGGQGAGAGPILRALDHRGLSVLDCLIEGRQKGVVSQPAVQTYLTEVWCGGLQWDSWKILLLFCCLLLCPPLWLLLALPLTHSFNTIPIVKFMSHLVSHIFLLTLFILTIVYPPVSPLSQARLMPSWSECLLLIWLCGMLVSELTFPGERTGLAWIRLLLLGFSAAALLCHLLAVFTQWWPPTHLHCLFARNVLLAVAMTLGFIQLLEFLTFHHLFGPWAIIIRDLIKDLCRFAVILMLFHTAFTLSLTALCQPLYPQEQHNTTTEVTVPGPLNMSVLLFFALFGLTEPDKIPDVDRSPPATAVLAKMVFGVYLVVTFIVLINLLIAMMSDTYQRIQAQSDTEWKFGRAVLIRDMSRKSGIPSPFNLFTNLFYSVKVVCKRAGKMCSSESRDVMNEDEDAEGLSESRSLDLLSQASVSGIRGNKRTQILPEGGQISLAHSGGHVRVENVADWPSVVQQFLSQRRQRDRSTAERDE

SMILES: CC(/C=C1\SC(=S)N(NC(=O)c2ccc(C)cc2)C1=O)=C\c1ccccc1
- IC50 [1]: > 35 µM (not active)
- IC50 [2]: 20.6 µM (not active)

SMILES: CCCCCCNS(=O)(=O)c1ccc(NC(=O)C2CCCO2)cc1 (stereo unspecified)
- IC50 [1]: 13.7 µM (not active)
- IC50 [2]: 7.94 µM (active)

SMILES: O=C(/C=C/c1ccccc1)Nn1cnnc1
- IC50 (Aspartyl aminopeptidase): 1.76 µM (active)
- IC50 (Procathepsin L): > 59.6 µM (not active)
- IC50 (Protein skinhead-1): > 100 µM (inactive)

SMILES: O=C(CNC(=O)c1ccccc1)NCCc1ccc(O)c(O)c1
- IC50 (Aspartyl aminopeptidase): 1.81 µM (active)
- IC50 (Procathepsin L): > 59.6 µM (not active)

SMILES: Cc1ccc(S(=O)(=O)c2c(C)nn(C(C)(C)C)c2OC(=O)C2CCCC2)cc1
- EC50 (Mucolipin-3): > 29.9 µM (not active)
- EC50 (Ion channel NompC): > 29.9 µM (not active)

SMILES: COc1ccc(S(=O)(=O)N2CCCCCC2)cc1N(C)S(=O)(=O)c1ccccc1
- EC50 (Mucolipin-3): 3.92 µM (active)
- EC50 (Ion channel NompC): > 29.9 µM (not active)

SMILES: CCOC(=O)c1cc2c(s1)-c1c(C)cccc1OC2
- EC50 [3]: 39.8 µM (active)
- EC50 [4]: 7.26 µM (active)
- EC50 (H4): 30.9 µM (active)
- AC50 [5]: 0.443 µM (active)

SMILES: COC(=O)c1ccc(NC(=S)N2CCCC2)cc1
- AC50 [5]: 10.3 µM (active)

SMILES: N=c1ccn(Cc2c(Cl)cccc2Cl)cc1
- IC50 [6]: > 80 µM (inactive)

SMILES: O=C(C=Cc1ccco1)c1cc(Cl)ccc1O
- AC50 [5]: 21.6 µM (active)

SMILES: COc1ccc(/C=N/NC(=O)CN(CCc2ccccc2)S(=O)(=O)c2ccc(NC(C)=O)cc2)cc1OC
- IC50 [1]: 10.4 µM (not active)
- IC50 [2]: 3.55 µM (active)

SMILES: COc1cc(Br)cc(/C=N/c2nc[nH]n2)c1O
- IC50 (Aspartyl aminopeptidase): 2.35 µM (active)
- IC50 (Procathepsin L): > 59.6 µM (not active)

SMILES: CCc1ccc2[nH]c3nc(N/N=C/c4cccc(O)c4)nnc3c2c1
- AC50 [7]: < 0.16 µM (active)
- IC50 [6]: > 80 µM (inactive)
